Measured values as given in patent US9080214B2, “Genetic markers for efficacy of iloperidone in the treatment of psychotic symptoms” (Vanda Pharmaceuticals, Inc., priority 2007, dated 2015).

Tested on: individuals diagnosed with schizophrenia
Assay: Change in PANSS-P subscale by SNP genotype, patients on iloperidone 24 mg/day b.i.d. for 28 days (MMRM)
Assay type: in vivo, human
From the text: Earlier studies investigated an association between a polymorphism in the CNTF gene and iloperidone efficacy as well as associations between CYP2D6 and KCNQ1 genotypes and changes in QT interval following the administration of iloperidone. The present study involved the genotyping of DNA samples collected from 426 individuals diagnosed with schizophrenia in an attempt to identify additional SNPs associated with iloperidone efficacy. Each sample was genotyped at more than 500,000 SNP loci using the GeneChip® Human Mapping 500K Array Set (Affymetrix, Santa Clara, Calif.) and using assays developed in-house. Approximately half of the participants in the study were administered 24 mg/day of iloperidone, b.i.d., for 28 days. About 25% of the patients were administered ziprasidone. The remaining participants were administered a placebo. Three analyses of the PANSS-T were conducted. 1) A two-step approach where samples were randomly split into 2 groups of iloperidone-treated patients used to discover SNPs associated with changed in PANSS-T (Discovery phase) and a second group to confirm the 100 most significant SNPs (Confirmatory phase). 2) A one-step approach using the Last Observation Carried Forward (LOCF) PANSS-T data of all iloperidone-treated patients. For each SNP, the most parsimonious genetic model (e.g., homozygous for one allele v. all other genotypes [i.e., AA v. AB and BB], heterozygous v. homozygous [i.e., AB v. AA and BB]) was established with respect to iloperidone efficacy using a one-way analysis of variance (ANOVA). 3) A Mixed-effects Model Repeated Measures (MMRM) analysis was subsequently conducted using the best genetic model of each SNP in the MMRM model. MMRM analyses were also conducted with the PANSS subscales PANSS-P, PANSS-N, and PANSS-GP. The SNPs with a statistically significant association in all 3 analyses of PANSS-T, as well as the best of each analysis were considered significant findings and are listed below in Table 1. Results for each of these SNPs with the PANSS-T scales and with the three subscales PANSS-P, PANSS-N, and PANSS-GP are shown in Tables 2, 3, 4, and 5, respectively. […] In the present case of iloperidone efficacy, it is likely that different markers are more specifically associated with one or a few specific clinical symptoms, which is reflected in the improvement measured in separate subscales.

SMILES: COc1cc(C(C)=O)ccc1OCCCN1CCC(c2noc3cc(F)ccc23)CC1 [iloperidone, 1-[4-[3-[4-(6-fluoro-1,2-benzisoxazol-3-yl)-1-piperidinyl]propoxy]-3-methoxyphenyl]ethanone]
- mean of change in PANSS-P (SNP_A-1819750 (CREG1) genotype A_A): −5.31
- mean of change in PANSS-P (SNP_A-1819750 (CREG1) genotype A_B*): −4.28
- mean of change in PANSS-P (SNP_A-1819750 (CREG1) genotype B_B): −5.02
- mean of change in PANSS-P (SNP_A-1819750 (CREG1) genotype nonAB**): −5.11
- mean of change in PANSS-P (SNP_A-1860353 (RAP1B) genotype A_A**): −9.20
- mean of change in PANSS-P (SNP_A-1860353 (RAP1B) genotype A_B): −4.42
- mean of change in PANSS-P (SNP_A-1860353 (RAP1B) genotype B_B): −4.28
- mean of change in PANSS-P (SNP_A-1860353 (RAP1B) genotype nonAA*): −4.30
- mean of change in PANSS-P (SNP_A-1934663 genotype A_A): −5.65
- mean of change in PANSS-P (SNP_A-1934663 genotype A_B): −5.78
- mean of change in PANSS-P (SNP_A-1934663 genotype B_B*): −3.40
- mean of change in PANSS-P (SNP_A-1934663 genotype nonBB**): −5.75
- mean of change in PANSS-P (SNP_A-1973093 (KIAA0040) genotype A_A): −5.12
- mean of change in PANSS-P (SNP_A-1973093 (KIAA0040) genotype A_B*): −2.58
- mean of change in PANSS-P (SNP_A-1973093 (KIAA0040) genotype B_B): −5.64
- mean of change in PANSS-P (SNP_A-1973093 (KIAA0040) genotype nonAB**): −5.54
- mean of change in PANSS-P (SNP_A-1975928 (SLC2A9) genotype A_A): −4.60
- mean of change in PANSS-P (SNP_A-1975928 (SLC2A9) genotype A_B): −4.79
- mean of change in PANSS-P (SNP_A-1975928 (SLC2A9) genotype B_B*): 6.19
- mean of change in PANSS-P (SNP_A-1975928 (SLC2A9) genotype nonBB**): −4.65
- mean of change in PANSS-P (SNP_A-1987915 (GPR126) genotype A_A): −3.53
- mean of change in PANSS-P (SNP_A-1987915 (GPR126) genotype A_B): −3.43
- mean of change in PANSS-P (SNP_A-1987915 (GPR126) genotype B_B**): −5.95
- mean of change in PANSS-P (SNP_A-1987915 (GPR126) genotype nonBB*): −3.45
- mean of change in PANSS-P (SNP_A-2007721 (LOC58486) genotype A_A): −1.70
- mean of change in PANSS-P (SNP_A-2007721 (LOC58486) genotype A_B**): −7.48
- mean of change in PANSS-P (SNP_A-2007721 (LOC58486) genotype B_B): −3.42
- mean of change in PANSS-P (SNP_A-2007721 (LOC58486) genotype nonAB*): −3.41
- mean of change in PANSS-P (SNP_A-2044214 (HNT) genotype A_A): −5.77
- mean of change in PANSS-P (SNP_A-2044214 (HNT) genotype A_B*): −2.08
- mean of change in PANSS-P (SNP_A-2044214 (HNT) genotype B_B): −5.64
- mean of change in PANSS-P (SNP_A-2044214 (HNT) genotype nonAB**): −5.73
- mean of change in PANSS-P (SNP_A-2048427 (NPAS3) genotype A_A): −6.16
- mean of change in PANSS-P (SNP_A-2048427 (NPAS3) genotype A_B): −6.26
- mean of change in PANSS-P (SNP_A-2048427 (NPAS3) genotype B_B*): −3.61
- mean of change in PANSS-P (SNP_A-2048427 (NPAS3) genotype nonBB**): −6.24
- mean of change in PANSS-P (SNP_A-2070454 (NKX2-5) genotype A_A): −4.04
- mean of change in PANSS-P (SNP_A-2070454 (NKX2-5) genotype A_B): −3.89
- mean of change in PANSS-P (SNP_A-2070454 (NKX2-5) genotype B_B**): −5.75
- mean of change in PANSS-P (SNP_A-2070454 (NKX2-5) genotype nonBB*): −3.94
- mean of change in PANSS-P (SNP_A-2076797 (NUDT9P1) genotype A_A): −2.57
- mean of change in PANSS-P (SNP_A-2076797 (NUDT9P1) genotype A_B**): −6.55
- mean of change in PANSS-P (SNP_A-2076797 (NUDT9P1) genotype B_B): −2.27
- mean of change in PANSS-P (SNP_A-2076797 (NUDT9P1) genotype nonAB*): −2.42
- mean of change in PANSS-P (SNP_A-2103099 (HTR1A) genotype A_A): −6.05
- mean of change in PANSS-P (SNP_A-2103099 (HTR1A) genotype A_B*): −2.88
- mean of change in PANSS-P (SNP_A-2103099 (HTR1A) genotype B_B): −5.88
- mean of change in PANSS-P (SNP_A-2103099 (HTR1A) genotype nonAB**): −5.95
- mean of change in PANSS-P (SNP_A-2120958 genotype A_A): −4.97
- mean of change in PANSS-P (SNP_A-2120958 genotype A_B): −4.92
- mean of change in PANSS-P (SNP_A-2120958 genotype B_B*): 1.49
- mean of change in PANSS-P (SNP_A-2120958 genotype nonBB**): −4.95
- mean of change in PANSS-P (SNP_A-2170121 (C6) genotype A_A): −3.49
- mean of change in PANSS-P (SNP_A-2170121 (C6) genotype A_B**): −6.98
- mean of change in PANSS-P (SNP_A-2170121 (C6) genotype B_B): −4.26
- mean of change in PANSS-P (SNP_A-2170121 (C6) genotype nonAB*): −3.56
- mean of change in PANSS-P (SNP_A-2274533 (LZTS1) genotype A_A**): −5.34
- mean of change in PANSS-P (SNP_A-2274533 (LZTS1) genotype A_B): −2.64
- mean of change in PANSS-P (SNP_A-2274533 (LZTS1) genotype B_B): −2.63
- mean of change in PANSS-P (SNP_A-2274533 (LZTS1) genotype nonAA*): −2.63
- mean of change in PANSS-P (SNP_A-2283283 (XKR4) genotype A_A*): −1.85
- mean of change in PANSS-P (SNP_A-2283283 (XKR4) genotype A_B): −4.92
- mean of change in PANSS-P (SNP_A-2283283 (XKR4) genotype B_B): −5.41
- mean of change in PANSS-P (SNP_A-2283283 (XKR4) genotype nonAA**): −5.12
- mean of change in PANSS-P (SNP_A-2284243 (GRIA4) genotype A_A): −5.09
- mean of change in PANSS-P (SNP_A-2284243 (GRIA4) genotype A_B): −5.09
- mean of change in PANSS-P (SNP_A-2284243 (GRIA4) genotype B_B*): −2.11
- mean of change in PANSS-P (SNP_A-2284243 (GRIA4) genotype nonBB**): −5.09
- mean of change in PANSS-P (SNP_A-4204396 (CDH13) genotype A_A): −4.76
- mean of change in PANSS-P (SNP_A-4204396 (CDH13) genotype A_B): −4.99
- mean of change in PANSS-P (SNP_A-4204396 (CDH13) genotype B_B*): 1.63
- mean of change in PANSS-P (SNP_A-4204396 (CDH13) genotype nonBB**): −4.85
- mean of change in PANSS-P (SNP_A-4212785 (PPP1R3B) genotype A_A*): 4.95
- mean of change in PANSS-P (SNP_A-4212785 (PPP1R3B) genotype A_B): −4.78
- mean of change in PANSS-P (SNP_A-4212785 (PPP1R3B) genotype B_B): −4.70
- mean of change in PANSS-P (SNP_A-4212785 (PPP1R3B) genotype nonAA**): −4.73
- mean of change in PANSS-P (SNP_A-4230979 (ASB3) genotype A_A): −2.80
- mean of change in PANSS-P (SNP_A-4230979 (ASB3) genotype A_B): −3.63
- mean of change in PANSS-P (SNP_A-4230979 (ASB3) genotype B_B**): −5.84
- mean of change in PANSS-P (SNP_A-4230979 (ASB3) genotype nonBB*): −3.45
- mean of change in PANSS-P (SNP_A-4256833 (MLCK) genotype A_A): −4.59
- mean of change in PANSS-P (SNP_A-4256833 (MLCK) genotype A_B*): −2.78
- mean of change in PANSS-P (SNP_A-4256833 (MLCK) genotype B_B): −5.14
- mean of change in PANSS-P (SNP_A-4256833 (MLCK) genotype nonAB**): −5.10
- mean of change in PANSS-P (SNP_A-4258279 (RRM1) genotype A_A): −5.01
- mean of change in PANSS-P (SNP_A-4258279 (RRM1) genotype A_B*): −0.85
- mean of change in PANSS-P (SNP_A-4258279 (RRM1) genotype B_B): −5.25
- mean of change in PANSS-P (SNP_A-4258279 (RRM1) genotype nonAB**): −5.24
